Results on two compounds are retold here after article PMC11758220, “Identification of a Privileged Scaffold for Inhibition of Sterol Transport Proteins through the Synthesis and Ring Distortion of Diverse, Pseudo-Natural Products” (ACS Central Science, 2025).

Experiment [1] concerns the target T1, STARD1 (Homo sapiens, UniProt P49675).
T1 construct: STARD1(66-284); made in house; host or cells: E. coli BL21(DE3)
T1 sequence (P49675 66-284): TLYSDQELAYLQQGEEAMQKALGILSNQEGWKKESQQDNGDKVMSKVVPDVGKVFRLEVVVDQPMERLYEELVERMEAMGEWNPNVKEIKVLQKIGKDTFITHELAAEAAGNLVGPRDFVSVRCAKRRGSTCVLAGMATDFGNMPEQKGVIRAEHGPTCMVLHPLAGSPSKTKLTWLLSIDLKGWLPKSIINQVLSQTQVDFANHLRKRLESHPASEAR
Kind of experiment: Effect on intrinsic protein fluorescence, STARD1. To be noted: protein 1 µM, excitation 280 nm. The protocol:
Effect of spirooxepinoindoles on intrinsic protein fluorescence
Figure S12: Spirooxepinoindoles 21a and 15f affect intrinsic protein fluorescence in dose-dependent fashion:
Respective proteins (1 µM) were incubated with the compounds at different doses. Proteins were excited at 280 ± 10 nm and fluorescence spectra were measured from 315 ± 20 nm to 600 ± 20 nm with a step size of 2 nm. A) STARD1 and 21a. B) ORP1 and 21a. C) ORP2 and 21a. D) ORP2 and 15f.
(1 picture or pasted object on this page, not shown here)
Superdex 75 pg (Cytiva) using an ÄKTA Explorer (Cytiva) in buffer containing 10 mM Tris -HCl, pH 8, 150 mM NaCl, 5 % glycerol and 2 mM DTT.
Fluorescence intensity and polarisation
Fluorescence intensity and polarisation (FP) experiments were performed in a buffer containing 20 mM HEPES pH 7.5, 300 mM NaCl, 0.01 %v/v Tween-20, 0.5% glycerol and 2 mM DTT in a final volume of 30 µl in black, flat-bottom, non-binding 384-well plates (Corning). All compounds were dispensed using the LabCyte Echo 550 Liquid handler. […] For competition experiments, 20 nM 22-NBD-cholesterol or 80 nM 25-NBD-cholesterol was mixed with protein and incubated with desired concentrations of screening compounds (Table S4) The fluorescence polarisation signal was measured using a Spark Cyto multimode microplate reader (Tecan) with filters set at 485 ± 20 nm for excitation and at 535 ± 20 nm for emission. […]

Experiment [2] concerns the target T2, STARD3 (Homo sapiens, UniProt Q14849).
T2 construct: STARD3(216-444); made in house; host or cells: E. coli BL21(DE3)
T2 sequence (Q14849 216-444): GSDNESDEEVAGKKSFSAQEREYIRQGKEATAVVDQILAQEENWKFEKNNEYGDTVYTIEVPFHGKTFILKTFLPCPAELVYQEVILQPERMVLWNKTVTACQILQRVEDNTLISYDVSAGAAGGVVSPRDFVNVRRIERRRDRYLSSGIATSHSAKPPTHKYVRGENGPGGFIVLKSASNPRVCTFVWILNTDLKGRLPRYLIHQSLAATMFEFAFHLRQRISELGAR
Set-up: method as in Depta et al.[43]. The following applies: data reproduced; ref Depta et al.[43]; read-out: STARD3 Kd,app (DSF); cited from earlier work.

Molecules are shown by their SMILES. pKd: −log10 of the molar value.

For `C[C@]12CC[C@@H]3C[C@H]1CC[C@@]21C(=Nc2ccc(-c4ccccc4)cc21)O3` [Compound 21a], in experiment [1], the “Quenching of intrinsic fluorescence of STARD1” value is given as “dose-dependently quenches”.
As a reminder, the pKd is −log10 of the Kd, conventionally taken in molar units. In the case of `CCN(CC)CCO[C@H]1CC[C@@]2(C)C(=CC[C@@H]3[C@@H]2CC[C@]2(C)C(=O)CC[C@@H]32)C1` [Compound U18666A, reference compound], the pKd in experiment [2] was < 4.52.
